Data on five compounds can be found in patent US8802711B2, “TRPV1 antagonists” (AbbVie Inc., priority 2011, dated 2014).

Where two headings read alike, the source gives them in different places.

The subject of assay [1] is Sprague-Dawley rats. In words: Sodium iodoacetate-induced knee joint osteoarthritic pain model. It is filed as in vivo, rat. The note with it: 1 hour after dosing, % return to normalcy of hind limb grip force. The text has this:
(§1) Adult male Sprague-Dawley rats (250-300 g body weight, Charles River Laboratories, Portage, Mich.) were used. Animal handling and experimental protocols were approved by the Institutional Animal Care and Use Committee (IACUC) at Abbott Laboratories. For all surgical procedures, animals were maintained under isoflurane anesthesia (4-5% to induce, 1-3% to maintain), and the incision sites were sterilized using a 10% povidone-iodine solution prior to and after surgeries.
Unilateral knee joint osteoarthritis was induced in the rats by a single intra-articular (i.a.) injection of sodium iodoacetate (3 mg in 0.05 mL sterile isotonic saline) into the right knee joint cavity under light isoflurane anesthesia using a 26 G needle. […] Pain behavioral assessment of hind limb grip force was conducted by recording the maximum compressive force exerted on the hind limb strain gauge setup, in a commercially available grip force measurement system (Columbus Instruments, Columbus, Ohio), to elicit paw withdrawal. The grip force data was converted to a maximum hindlimb cumulative compressive force (CFmax) (gram force)/kg body weight for each animal. The analgesic effects of test compounds were determined 20 days following the i.a. injection of sodium iodoacetate. The vehicle control group for each compound being tested was assigned 0% whereas the age matched naïve group was assigned as being 100% (normal). The % effect for each dose group was then expressed as % return to normalcy compared to the naïve group. Test compounds were administered orally in 10% ethanol/20% Tween 80/70% polyethylene glycol-400 vehicle at a volume of 2 mL/kg. The assessment of the analgesic effects of test compounds was made 1 hour following oral administration. The assessment of the analgesic effects of test compounds can be made following a single dose or following repeated administration wherein the frequency of dosing is 1 to 2 times daily. The duration of such repeated daily dosing may last for any time greater than one day. A typical duration of repeated daily dosing is about 5 days to about 12 days.

The subject of assay [2] is Sprague-Dawley rats. In words: Rat acute capsaicin-induced flinching behavior. Type of assay: in vivo. The note with it: percent reduction in number of flinching behaviors.
Source text: as §1
Rats were placed in individual observation cages. […] One hour after administration of the test compound, 2.5 μg of capsaicin in a 10 μL solution of 10% ethanol/90% hydroxypropyl-β-cyclodextrin was injected subcutaneously into the dorsal aspect of the right hind paw. The observation cage was then suspended above mirrors in order to facilitate observation. […] The number of flinching behaviors of the injured paw was recorded during the five minute observation period (Gilchrist, H. D.; Allard, B. L.; Simone, D. A.; Enhanced withdrawal responses to heat and mechanical stimuli following intraplantar injection of capsaicin in rats. Pain, 1996, 67, 179-188). The percent reduction in the number of flinching behaviors produced with oral administration of representative compounds of the present invention relative to control-treated animals (% effect) is reported in Table 3.

In assay [3] the target is human TRPV1 receptor (hTRPV1) (Homo sapiens (Human), UniProt Q8NER1). In words: Acid activation assay (pH 5.0, FLIPR intracellular Ca2+). Type of assay: cell-based. The following applies: 37.5 μM antagonist, percentage of the maximal pH 5.0-induced response remaining, read-out: hTRPV1 H+ (max % remain). Put shortly:
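Antagonism of acid-evoked Ca2+ influx measured by FLIPR Calcium-4 fluorescence after a pH 5.0 DPBS/MES stimulus, with compounds preincubated 3 min over 12 half-log concentrations. Cells: stable hTRPV1-expressing 1321N1 line, dye-loaded 90–120 min in the dark at 25 °C.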

Sequence of human TRPV1 receptor (hTRPV1) (Q8NER1 whole entry): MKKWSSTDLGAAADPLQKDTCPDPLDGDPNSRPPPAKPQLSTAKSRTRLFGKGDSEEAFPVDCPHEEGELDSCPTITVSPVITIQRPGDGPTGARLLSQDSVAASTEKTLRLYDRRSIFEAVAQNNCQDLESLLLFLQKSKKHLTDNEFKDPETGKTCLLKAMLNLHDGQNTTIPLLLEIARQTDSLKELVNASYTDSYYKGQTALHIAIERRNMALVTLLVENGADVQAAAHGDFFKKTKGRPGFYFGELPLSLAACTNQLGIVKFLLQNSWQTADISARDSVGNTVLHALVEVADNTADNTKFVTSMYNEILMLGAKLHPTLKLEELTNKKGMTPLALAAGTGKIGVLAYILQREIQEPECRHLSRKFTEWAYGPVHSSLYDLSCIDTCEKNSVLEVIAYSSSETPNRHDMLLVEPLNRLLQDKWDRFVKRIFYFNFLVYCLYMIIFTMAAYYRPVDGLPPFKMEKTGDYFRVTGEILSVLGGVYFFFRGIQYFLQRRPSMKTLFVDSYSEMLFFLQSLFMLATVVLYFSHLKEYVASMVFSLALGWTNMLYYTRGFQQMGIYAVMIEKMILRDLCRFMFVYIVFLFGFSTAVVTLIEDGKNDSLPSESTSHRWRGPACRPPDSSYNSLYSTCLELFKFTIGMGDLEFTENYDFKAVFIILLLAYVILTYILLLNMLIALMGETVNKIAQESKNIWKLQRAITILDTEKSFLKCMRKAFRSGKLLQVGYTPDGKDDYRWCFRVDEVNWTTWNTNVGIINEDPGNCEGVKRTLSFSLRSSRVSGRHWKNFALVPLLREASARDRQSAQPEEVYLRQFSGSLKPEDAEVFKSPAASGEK

For the compound `O=C(Nc1cccc2[nH]ncc12)N[C@H]1CC[C@@H](c2ccccc2)C1` [Example 28, 1-(1H-indazol-4-yl)-3-[(1S,3R)-3-phenylcyclopentyl]urea], the “% effect” value in assay [1] (100 μmol/kg p.o.) is reported as 78%; in assay [2] (10 μmol/kg p.o.), 60%. Further, the remaining activity at 37.5 µM in assay [3] (Table 1) and in assay [3] (Table 2) was 41% throughout.
Consider `O=C(Nc1cccc2[nH]ncc12)N[C@H]1CC[C@H](c2ccccc2)C1` [Example 14, 1-(1H-indazol-4-yl)-3-[(1S,3S)-3-phenylcyclopentyl]urea], for which the “% effect” value in assay [2] (10 μmol/kg p.o.) stood at 76%. Also, the remaining activity at 37.5 µM in assay [3] (Table 1) and in assay [3] (Table 2) was 36% in each case.
Regarding `Cn1ncc2c(NC(=O)N[C@@H]3CC[C@H](c4ccccc4)C3)cccc21` [Example 4, 1-(1-methyl-1H-indazol-4-yl)-3-[(1R,3S)-3-phenylcyclopentyl]urea], the “% effect” value in assay [1] (10 mg/kg p.o.) stood at 50%. Further, the remaining activity at 37.5 µM was found to be 37% in assay [3] (Table 1) and 21% in assay [3] (Table 2).
With `Cc1cc2c(NC(=O)N[C@@H]3CC[C@H](c4ccccc4)C3)c(F)ccc2cn1` [Example 6, 1-(6-fluoro-3-methylisoquinolin-5-yl)-3-[(1R,3S)-3-phenylcyclopentyl]urea], the “% effect” value in assay [2] (100 μmol/kg p.o.) was 88%. For the same compound, the remaining activity at 37.5 µM in assay [3] (Table 1) and in assay [3] (Table 2) was 62% each time.
Turning to `O=C(Nc1cccc2[nH]ncc12)N[C@@H]1CC[C@@H](c2ccccc2)C1` [Example 21, 1-(1H-indazol-4-yl)-3-[(1R,3R)-3-phenylcyclopentyl]urea], the “% effect” value in assay [1] (10 mg/kg p.o.) stood at 37%. In addition, the remaining activity at 37.5 µM in assay [3] (Table 1) and in assay [3] (Table 2) was 8% in each case.
